{"source": "paper PMC10470491", "about": "“Modulation of the functional interfaces between retroviral intasomes and the human nucleosome” (mBio, 2023)", "key": {"[1]": {"molecular_target": "histone tails", "parameters": "method as in PMID 26503405", "settings": "ref [18]; cited from earlier work"}, "[2]": {"molecular_target": "PFV intasome (Human spumaretrovirus, UniProt P14350)", "assay": "biochemical", "format": "biochemical, prototype foamy virus (PFV)", "parameters": "Briefly, PFV IN and its cognate vDNA were mixed, and assembled intasomes were purified by size exclusion chromatography; octamers produced in E. coli", "settings": "for inhibition of PFV integration into MNs: 30 nM FITC PFV intasome, MN, drugs 0–25 µM", "experimental": "Integration assays using purified assembled intasomes were performed as followed: either 100 ng of naked DNA or 100 ng of DNA assembled on 100 ng of histone octamers (24 nM final concentration) was incubated with 30 nM final concentration of purified intasome in 100 mM NaCl, 20 mM BTP pH 7, 12.5 mM MgSO4 (for PFV intasome), or in 20 mM HEPES pH 7, 7.5% DMSO, 8% PEG, 10 mM MgCl2, 20 µM ZnCl2, 100 mM NaCl, 5 mM DTT final concentration (for HIV-1 intasome) in a final volume of 40 µL. The mix was then incubated at 37°C for 15 min and 1 h, respectively. Then, reaction was stopped by the addition of 5.5 µL of a mix containing 5% SDS and 0.25 M EDTA and deproteinized with proteinase K (Promega) for 1 h at 37°C. Nucleic acids were then precipitated with 150 µL of ethanol overnight at −20°C. Samples were then spun at top speed for 1 h at 4°C, and the pellets were dried and then resuspended with DNA loading buffer. Integration products were separated on an 8% native polyacrylamide gel."}, "[3]": {"system": "HIV-1 intasome (vDNA•IN•LEDGF/p75)", "assay": "in vitro HIV-1 concerted integration onto mononucleosome", "format": "biochemical"}, "[4]": {"system": "PFV intasome/nucleosome complex", "assay": "AlphaLISA PFV intasome/nucleosome interaction assay", "format": "binding, prototype foamy virus (PFV); human mononucleosome", "experimental": "AlphaLISA is a technology particularly suitable for bimolecular inhibitor screening assays using protein-protein interactions with purified recombinant proteins. The AlphaLISA assay development was performed in 96-well 12 area Alphaplate (reference 6052340, PerkinElmer, Waltham, MA, USA) with a final reaction volume of 40 µL. Cross-titration experiments of biotinylated MN (0–50 nM) against DIG-intasome (0–100 nM) were carried out to establish optimal assay concentrations for the binding assay. Ten microliters of each protein were diluted in the binding buffer 50 mM BisTris-propane pH 7, 100 mM NaCl, 0.1% (v/v) Tween-20, 0.1% (w/v) BSA, and 1 mM dithiothreitol. The plate was incubated at RT for 2 h in rotation. Ten microliters of anti-DIG acceptor beads (PerkinElmer, reference AL113) were then added, and after 1 h of incubation at RT with rotation, 10 µL of streptavidin […] (Perkin Elmer, reference 6760002) was mixed to the wells. This established a final concentration of 20 µg/mL for each bead. The plate was then incubated for 1 h at RT in the dark before the AlphaLISA signal was detected using an EnSpire Multimode Plate Reader (PerkinElmer). Negative control with binding buffer or only with one of the complexes was used to control the assay quality. Data were analyzed with GraphPad Prism 5.01 software. To evaluate tolerance for DMSO, the assay was performed as described above with an addition of 0.15–20% (v/v) of DMSO during the binding step. For the competition experiment, increasing concentrations of untagged intasome were titrated out in the 1-nM DIG-intasome/biotinylated nucleosome interaction assay.\nFor the AlphaLISA screening assay with the NIH OncoSET library, the binding conditions were optimized for use in 384-well plate (Optiplate, reference 6007290, PerkinElmer) with the same concentrations for complexes and beads in a final reaction volume of 20.5 µL (2.5% DMSO final concentration). The screening was first carried out with 25 µM of each compound pre-incubated for 1 h with 1 nM intasome/nucleosome complexes. Compounds were selected as inducing at least 50% decrease of the AlphaLISA signal control condition, and their inhibitory effect was further tested using dose-response curves. For compounds validation, counter select assay was performed using a short DNA fragment carrying a biotin and a DIG tag on each side. The AlphaLISA signal was monitoring using increasing concentrations of the double-tagged DNA, and the selected compounds were tested in optimized conditions at 10 µM. Any compound that causes decreased signal means that it interferes with AlphaLISA readout, and therefore, it is not relevant to this assay."}, "[5]": {"system": "PBMC cells"}, "[6]": {"system": "HIV-1 intasome", "settings": "MN assembled onto natural DO2 sequence"}, "[7]": {"system": "Vpr-BLaM containing NL-4.3 or NL-4.3Δenv-VSV-G viruses", "format": "cell-based, HIV-1"}, "[8]": {"system": "HIV-1 subtype B virus", "assay": "qPCR quantification of viral DNA populations in infected PBMCs", "format": "cell-based"}, "[9]": {"system": "HIV-1 subtype B virus", "assay": "HIV-1 infection assay in PBMCs (HIV-1 RNA in supernatant)", "format": "cell-based", "settings": "Human immunodeficiency virus 1, PBMC, read-out: IC50 of HIV-1 replication", "experimental": "PBMCs were isolated from blood samples using Ficoll-Hypaque gradient centrifugation. After separation, PBMCs were pelleted by centrifugation. […] Next, PBMCs were harvested (7 min, 400 × g) and resuspended in 500 µL culture medium. […] Then, the medium was removed, and 10 mL of RPMI 1640 was added to wash the cells. The cells were harvested at low speed (400 × g), and the washed-cell pellet was resuspended in 2 mL of supplemented RPMI 1640. The cell suspension was added to wells of a 24-well tissue culture plate and incubated at 37°C. HIV-1 RNA from plasma samples was determined at 24, 48, and 72 h postinfection."}, "[10]": {"system": "mononucleosome (MN)", "assay": "histone eviction assay (EMSA / SDS-PAGE)", "format": "biochemical, human", "settings": "10 µM or increasing concentrations"}}, "note": "Read-outs that look alike come from different tables or passages of the source."}
{"smiles": "O=S(=O)(O)c1cc2c(O)c(c1)Cc1cc(S(=O)(=O)O)cc(c1O)Cc1cc(S(=O)(=O)O)cc(c1O)Cc1cc(S(=O)(=O)O)cc(c1O)C2", "note": "[CA1]", "values": [{"measurement": "Kd", "setting": "[1]", "value": "17.8 to 20.4", "unit": "µM"}, {"measurement": "inhibition of PFV integration into MNs", "setting": "[2]", "value": "inefficient in our assay"}, {"measurement": "IC50", "setting": "[3]; Table 4, title: in vitro HIV-1 integration inhibition, read-out: Integration IC50", "value": "> 1000", "unit": "nM"}, {"measurement": "inhibition of intasome/nucleosome association in AS", "setting": "[4]; increasing drug concentrations", "value": "less efficient in inhibiting the association"}]}
{"smiles": "COc1cccc2c1C(=O)c1c(O)c3c(c(O)c1C2=O)C[C@@](O)(C(=O)CO)C[C@@H]3O[C@H]1C[C@H](N)[C@H](O)[C@H](C)O1", "note": "[Doxorubicin, doxorubicin]", "values": [{"measurement": "cytotoxicity", "setting": "[5]", "value": "poor cytotoxicity"}, {"measurement": "inhibition of HIV-1 integration into DO2 nucleosome", "setting": "[6]", "value": "as efficient in inhibiting the HIV-1 integration into DO2 nucleosome than onto the 601 nucleosome"}, {"measurement": "effect on viral fusion / entry", "setting": "[7]", "value": "did not affect this early entry step"}, {"measurement": "effect on total viral DNA", "setting": "[8]; 20 h postinfection", "value": "no effect"}, {"measurement": "effect on integrated DNA", "setting": "[8]; infected PBMCs", "value": "decreased"}, {"measurement": "effect on two-LTR circles", "setting": "[8]; infected PBMCs", "value": "increased"}, {"measurement": "IC50", "setting": "[2]", "value": "< 1000", "unit": "nM"}, {"measurement": "inhibition of PFV integration into MNs", "setting": "[2]", "value": "able to inhibit PFV integration into MNs"}, {"measurement": "IC50", "setting": "[9]", "value": "2 to 20", "unit": "nM"}, {"measurement": "histone eviction / MN dissociation", "setting": "[10]", "value": "full shift of the nucleosomal DNA in addition to a strong MN dissociation"}, {"measurement": "IC50", "setting": "[3]; preformed HIV-1 intasome, MN, read-out: IC50 of in vitro HIV-1 integration", "value": "~300", "unit": "nM"}, {"measurement": "IC50", "setting": "[3]; preformed HIV-1 intasome, native MN (601), read-out: IC50 of in vitro HIV-1 integration", "value": "< 1000", "unit": "nM"}, {"measurement": "decrease in the AS signal", "setting": "[4]; OncoSET screen, 25 µM drug, 1 nM of each partner", "value": "at least 50%"}, {"measurement": "IC50", "setting": "[4]; intasome/nucleosome AS assay, increasing drug concentrations, Fig. 3E", "value": "870 ± 40", "unit": "nM"}, {"measurement": "effect on the intasome/nucleosome AS signal", "setting": "[4]; retest at 10 µM, MN", "value": "strong inhibitory effect"}]}
